From patent publication US20260224475A1, “MULTI-COMPONENT INTRAVAGINAL RING” (priority 2023, published 2026)
Like-named read-outs stand apart in the source and are kept apart here.

Key:
[1] = tested on: C. trachomatis; experiment: Bactericidal activity against C. trachomatis (inclusion count in HeLa cells); type: cell-based; conditions: for inhibition of C. trachomatis infection (in words): absence or presence of 2% VF and 20% SF, 2 hours at room temperature, LA 80 mM
Procedure: C. trachomatis was incubated with actives ±2% VF and 20% SF for 2 hours at room temperature. The mixtures were serially diluted 1/10 in SPG solution, applied on HeLa cells in triplicate. Images were acquired using the Cytation-5 instrument and the inclusion count was analyzed using the Gen5 software in the Cytation-5. Control conditions included HeLa cells challenged with C. trachomatis in the absence of the actives. (FIG. 15).

[2] = tested on: HSV-2 G; experiment: HSV-2 plaque reduction assay; type: cell-based; conditions: 30 min pre-incubation with HSV-2 G in saline, read-out: EC50 (95% confidence interval)
Procedure: The HSV-2 plaque reduction assay was performed to test the anti-HSV-2 activity of ZA, CS and LA. […] Virus controls containing HSV-2 in saline were incubated under the same conditions. After incubation all dilutions and controls were diluted 1/10 in DMEM and tittered using the plaque assay. FIG. 12 and Table 10 show the results. […] The data represented the average of two independent experiments. In Table 10, the molar ratio of CS:LA:ZA in ZS-CA-LA is 1:20:100.

[3] = tested on: VEC-100 tissue; experiment: VEC-100 tissue, repeated exposure (1 hr daily for 5 days; viability, TEER); type: cell-based
[4] = tested on: human sperm; experiment: Sperm motility assay; type: cell-based; conditions: for Average Motility Reduction: average of nine 3-API checkerboard combinations containing the named API at this dose; for EC50 / EC90: Homo sapiens, Sperm
Procedure: Fresh human sperm samples were obtained the day of the experiment. 100 mM stock solutions of each API in saline were prepared in advance. Immediately prior to the experiment, solutions of each API concentration to be tested were prepared via dilution with saline. These include solutions of multiple APIs added together.
The effect of each API on sperm motility and viability was determined using human donors, adding 200 μL of API's diluted in sterile saline to 50 μL of fresh semen. For motility assessments, the incubation mixture was incubated for 5 minutes and then 100 sperm were counted under the microscope by two andrology-trained researchers and classified as either non-motile or motile. If motile, the sperm were further classified according to the nature of their motility—from barely twitching with no forward progression to progressively motile. Each experiment was repeated at least three times on different days using different donors to account for natural variations in sperm properties.
The % motility for each experimental condition was calculated by normalizing the fraction of motile sperm in the experimental groups to the fraction of motile sperm in the saline control treated group, setting 100% to the average fraction of motile sperm from control experiments. For example, the % motility at concentration c would be:
Once % motility data was obtained, the synergy was measured with Compusyn software. See Chou et al., CompuSyn for drug combinations: PC software and user's guide: a computer program for quantitation of synergism and antagonism in drug combinations, and the determination of IC50. ED50 and LD50 values, which is incorporated herein by reference in its entirety. Motility data for individual API concentration as well as all double and triple API solutions was entered into the program and analyzed according to the Chou-Talalay Median Effect Principle.
Next, the synergy between each of the APIs was tested to determine if there were any synergistic effects between compounds which would allow for reduced dosages. Each of the three possible two-compound combinations were tested, followed by the combination of all three APIs. […] Synergy was calculated with Compusyn using the Chou-Talalay Median Effect approach and represented as a CI (Combination Index) value. […] The smaller the CI value for a combination, the greater the degree of synergy.
After the two-API combinations were complete, the full three-way synergy was tested using a 3×3×3 checkerboard style assay to test all 27 permutations of three chosen concentrations for each of the three APIs.
From the resulting data, the estimated effects of each of the individual API were isolated by averaging % reduction in motility and the CI values for each of the API concentrations tested. With this 3×3×3 checkerboard assay, each single concentration was tested against nine permutations of the other two APIs, meaning that each cell in Table 4 represents the average of the nine combinations involving the specified API concentration.
Synergy was calculated utilizing the Chou-Talalay median effect principle and Compusyn software which quantifies synergy as a combination index (CI) for each combination. A CI<1 signifies synergy, a CI>1 signifies antagonism and a CI=1 signifies a purely additive effect.

[5] = tested on: Ectocervical explants
Procedure: Kruskal-Wallis test with Dunn's multiple comparison) (FIG. 22).
In FIG. 23, ectocervical explants were incubated with the selected concentrations of the APIs for 24 hr in the presence or absence of 5% VF. Explants were fixed, paraffin embedded, sectioned and stained with H&E.
Ectocervical explants were exposed to the APIs 24 hr in the presence or absence of 5% VF. Supernatants were collected and analyzed for pro-inflammatory cytokines.

[6] = tested on: VEC-100 tissue
Procedure: VEC-100 tissues were incubated with APIs for 24 hr. Tissue viability was analyzed by MTT and LDH assay and TEER measurements were recorded.

[7] = tested on: lactobacillus; experiment: Non-cidal concentrations in lactobacillus (MCC 30 min); type: cell-based
[8] = tested on: G. vaginalis; experiment: Minimal cidal concentration (MCC); type: cell-based; conditions: 30 minutes exposure; >3 log decrease in CFU considered cidal
[9] = rat, in vivo, 10 days
[10] = tested on: human sperm; experiment: Sperm-Cervical Mucus Penetration Test (SMPT) in methylcellulose; type: cell-based; conditions: Homo sapiens, Sperm
[11] = tested on: N. gonorrhoeae; experiment: Minimal cidal concentration (MCC); type: cell-based
[12] = tested on: HIV-1BaL; experiment: MAGI assay, anti-HIV-1BaL activity in TZMbl cells; type: cell-based; conditions: read-out: EC50 (95% confidence interval)
Procedure: MAGI assay was performed to test anti-HIV-1BaL activity. […] Virus controls containing HIV-1BaL in saline were incubated under the same conditions. Following incubation, API-HIV-1BaL mixture was diluted 10-fold and added to TZMbl cells. Following 72-hour incubation, the cells were washed and stained with X-gal and fixed. […] Infected cells were counted using CTL instrument.

SMILES: CC(O)C(=O)O (racemic) [LA, lactic acid]
- anti-C. trachomatis activity (in words) ([1]; LA concentrations lower than 80 mM): no activity was observed
- inhibition of C. trachomatis infection (in words) [1]: significantly inhibited infection
- EC50 ([2]; Human alphaherpesvirus 2, single API): 0.16 mM
- VEC-100 single exposure (MTT, TEER and LDH) day 1-5 24 h No VF ([3]; […] mM): No Tox
- Non-toxic concentrations in VEC-100 model TEER and LDH 5 daily exposures ([3]; multiple treatments): 22 mM
- Average Motility Reduction ([4]; Dose 1 (CS 2.95, ZA 4.75, LA 10.26 mM)): 54.75%
- Average Motility Reduction ([4]; Dose 2 (CS 3.94, ZA 6.34, LA 13.70 mM)): 70.74%
- Average Motility Reduction ([4]; Dose 3 (CS 5.90, ZA 9.51, LA 20.54 mM)): 91.84%
- EC50 ([4]; 5 min, single API (CS/ZA/LA study), saline, 5 min with fresh semen, % motility vs saline control): 20.5 mM
- EC90 ([4]; 5 min, single API (CS/ZA/LA study), saline, 5 min with fresh semen, % motility vs saline control, read-out: EC90): 28.7 mM
- EC90 ([4]; Table 16, concentration of the named API in the CS + ZL + LA combination (cf. Table 7), read-out: Anti-Sperm concentrations Total motility (EC90)): 21 mM
- EC50 ([4]; single API (CS/ZL/LA study)): 21 mM
- EC90 ([4]; single API (CS/ZL/LA study), read-out: EC90): 29 mM
- EC90 ([4]; single API, read-out: Reduction of Sperm Motility EC90 [95% CI] (concentration to inhibit total sperm motility)): 29 mM
- MIC (concentration to inhibit progressive sperm motility) ([4]; single API): 20 mM
- Ectocervix: single exposure (MTT, Histology, CC) 24 h, 5% VF ([5]; 111 mM): No Tox
- Ectocervix: single exposure (MTT, Histology, CC) 24 h, No VF ([5]; 111 mM): No Tox
- Ectocervix: single exposure (MTT, Histology, CC) 24 h, 5% VF ([5]; 222 mM): No Tox
- Ectocervix: single exposure (MTT, Histology, CC) 24 h, No VF ([5]; 222 mM): No Tox
- Non-toxic concentrations in ectocervix MTT and histology 24 hr ([5]; single treatment): 222 mM
- concentration up to which exposure alone did not induce toxicity ([6]; single active, 24 h single exposure, summary of ectocervix and VEC-100 findings): up to 222 mM
- Non-toxic concentrations in VEC-100 model TEER and LDH 24 h ([6]; single treatment): 222 mM
- Non-cidal concentrations in lactobacillus MCC 30 min [7]: 222 mM
- MCC [8]: 111 mM
- Non-toxic concentrations based on rat vaginal irritation study 10 days exposure [9]: 200 mM
- EC90 ([10]; 0.5 h, single API, 1% methylcellulose, 30 minutes, read-out: Inhibition of Sperm Mucus Penetration EC90 [95% CI] (Migration of vanguard sperm in methyl cellulose spiked with API)): 5 mM
- EC90 ([10]; Table 16, concentration of the named API in the CS + ZL + LA combination (cf. Table 7), read-out: Anti-Sperm concentrations Sperm-mucus penetration (EC90)): 1.5 mM
- MCC 10% AB Serum ([11]; 10% AB serum): 111 mM
- MCC 30% AB Serum ([11]; 30% AB serum): 111 mM
- MCC ([11]; 30 minutes exposure, >3 log decrease in CFU considered cidal): 111 mM
- MCC No Serum ([11]; no serum): 111 mM
- EC50 ([12]; TZM-bl): 2.5 mM

SMILES: O=S(=O)([O-])[O-].[Cu+2] [CS, copper sulfate]
- inhibition of C. trachomatis infection (in words) [1]: significantly inhibited infection
- EC50 ([2]; single API): 0.009 mM
- EC50 ([12]; single API, 30 min pre-incubation with virus in saline, 10-fold dilution, 72 h on TZMbl cells): 0.183 mM
